According to patent publication US8431565B2 (priority 2007, dated 2013):

Biological target: T1, rat CB2 receptor (rCB2) (Rattus norvegicus, UniProt Q9QZN9)
T1 sequence (Q9QZN9 1-360): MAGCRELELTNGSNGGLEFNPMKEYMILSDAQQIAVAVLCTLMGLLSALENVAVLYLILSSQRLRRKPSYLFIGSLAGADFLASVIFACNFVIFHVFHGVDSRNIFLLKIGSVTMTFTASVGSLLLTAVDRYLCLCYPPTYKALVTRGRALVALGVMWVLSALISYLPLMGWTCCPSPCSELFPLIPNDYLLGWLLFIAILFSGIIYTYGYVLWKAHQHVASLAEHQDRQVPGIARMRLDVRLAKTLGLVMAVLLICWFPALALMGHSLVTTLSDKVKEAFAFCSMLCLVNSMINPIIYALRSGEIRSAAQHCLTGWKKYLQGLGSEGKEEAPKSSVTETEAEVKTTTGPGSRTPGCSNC

SMILES | EC50 [nM]
CC(C)CN1CCn2c(-c3ccccc3)nc(C(=O)NCC3CCOCC3)c2C1 [Compound 167, 7-isobutyl-3-phenyl-N-((tetrahydro-2H-pyran-4-yl)methyl)-5,6,7,8-tetrahydroimidazo[1,5-a]pyrazine-1-carboxamide] | 10 to 100
CNC(=O)[C@@H](NC(=O)c1nc(-c2cc(C(F)(F)F)ccc2F)n2c1CN(C)CC2)C(C)(C)C [Compound 245, (S)-N-(3,3-dimethyl-1-(methylamino)-1-oxobutan-2-yl)-3-(2-fluoro-5-(trifluoromethyl)phenyl)-7-methyl-5,6,7,8-tetrahydroimidazo[1,5-a]pyrazine-1-carboxamide] | 10 to 100
CNC(=O)[C@@H](NC(=O)c1nc(-c2ccccc2)n2c1CN(S(=O)(=O)C(C)C)CC2)C(C)(C)C [Compound 94, (S)-N-(3,3-dimethyl-1-(methylamino)-1-oxobutan-2-yl)-7-(isopropylsulfonyl)-3-phenyl-5,6,7,8-tetrahydrimidazo[1,5-a]pyrazine-1-carboxamide] | 10 to 100
CNC(=O)[C@@H](NC(=O)c1nc(-c2ccccc2)n2c1CN(S(C)(=O)=O)CC2)C(C)(C)C [Compound 92, (S)-N-(3,3-dimethyl-1-(methylamino)-1-oxobutan-2-yl)-7-(methylsulfonyl)-3-phenyl-5,6,7,8-tetrahydroimidazo[1,5-a]pyrazine-1-carboxamide] | 10 to 100
CNC(=O)[C@@H](NC(=O)c1nc(-c2ccccc2)n2c1CN(S(=O)(=O)c1ccc(F)cc1)CC2)C(C)(C)C [Compound 93, (S)-N-(3,3-dimthyl-1-(methylamino)-1-oxobutan-2-yl)-7-(4-fluorophenylsulfonyl)-3-phenyl-5,6,7,8-tetrahydroimidazo[1,5-a]pyrazine-1-carboxamide] | 10 to 100
CNC(=O)[C@@H](NC(=O)c1nc(-c2ccc3ccccc3c2)n2c1CN(C)CCC2)C(C)(C)C [Compound 380, (S)-N-(3,3-dimethyl-1-(methylamino)-1-oxobutan-2-yl)-8-methyl-3-(naphthalen-2-yl)-6,7,8,9-tetrahydro-5H-imidazo[1,5-a][1,4]diazepine-1-carboxamide] | 10 to 100
CNC(=O)[C@@H](NC(=O)c1nc(-c2ccccc2)n2c1CN(S(=O)(=O)c1ccccc1F)CC2)C(C)(C)C [Compound 98, (S)-N-(3,3-dimethyl-1-(methylamino)-1-oxobutan-2-yl)-7-(2-fluorophenylsulfonyl)-3-phenyl-5,6,7,8-tetrahydroimidazo[1,5-a]pyrqazine-1-carboxamide] | 10 to 100
CNC(=O)[C@@H](NC(=O)c1nc(-c2ccccc2)n2c1CN(S(=O)(=O)c1ccc(C#N)cc1)CC2)C(C)(C)C [Compound 108, (S)-7-(4-cyanophenylsulfonyl)-N-(3,3-dimethyl-1-(methylamino)-1-oxobutan-2-yl)-3-phenyl-5,6,7,8-tetrahydroimidazo[1,5-a]pyrazine-1-carboxamide] | 10 to 100
CCc1nc(C(=O)N[C@H](C(=O)NC)C(C)(C)C)c2n1CCN(C)C2 [Compound 310, (S)-N-(3,3-dimethyl-1-(methylamino)-1-oxobutan-2-yl)-3-ethyl-7-methyl-5,6,7,8-tetrahydroimidazo[1,5-a]pyrazine-1-carboxamide] | 10 to 100
COC(=O)N1CCn2c(-c3ccc(Cl)cc3)nc(C(=O)NCCC(C)C)c2C1 [Compound 183, methyl 3-(4-chlorophenyl)-1-(isopentylcarbamoyl)-5,6-dihydroimidazol[1,5-a]pyrazine-7(8H)-carboxylate] | 10 to 100
CC(C)CCNC(=O)c1nc(-c2ccc(Cl)cc2)n2c1CN(CC(C)C)CC2 [Compound 157, 3-(4-chlorophenyl)-7-isobutyl-N-isopentyl-5,6,7,8-tetrahydroimidazo[1,5-a]pyrazine-1-carboxamide] | 10 to 100
CCS(=O)(=O)N1CCn2c(-c3ccccc3)nc(C(=O)NC3C4(C)CCC(C4)C3(C)C)c2C1 (stereo not shown) [Compound 112, 7-(ethylsulfonyl)-3-phenyl-N-(1,3,3-trimethylbicyclo[2.2.1]heptan-2-yl)-5,6,7,8-tetrahydroimidazo[1,5-a]pyrazine-1-carboxamide] | 10 to 100
CCN1CCn2c(-c3ccccc3)nc(C(=O)NCC3CCOCC3)c2C1 [Compound 168, 7-ethyl-3-phenyl-N-((tetrahydro-2H-pyran-4-yl)methyl)-5,6,7,8-tetrahydroimidazo[1,5-a]pyrazine-1-carboxamide] | 10 to 100
CNC(=O)[C@@H](NC(=O)c1nc(-c2ccc(C)cc2F)n2c1CN(C)CC2)C(C)(C)C [Compound 249, (S)-N-(3,3-dimethyl-1-(methylamino)-1-oxobutan-2-yl)-3-(2-fluoro-4-methylphenyl)-7-methyl-5,6,7,8-tetrahydroimidazo[1,5-a]pyrazine-1-carboxamide] | 10 to 100
CCN1CCn2c(-c3ccccc3)nc(C(=O)NC3C4(C)CCC(C4)C3(C)C)c2C1 (stereo not shown) [Compound 144, 7-ethyl-3-phenyl-N-(1,3,3-trimethylbicyclo[2.2.1]heptan-2-yl)-5,6,7,8-tetrahydroimidazo[1,5-a]pyrazine-1-carboxamide] | 0.1 to 10
CNC(=O)[C@@H](NC(=O)c1nc(CCCC2CCCC2)n2c1CN(C)CCC2)C(C)(C)C [Compound 494, (S)-3-(3-cyclopentylpropyl)-N-(3,3-dimethyl-1-(methylamino)-1-oxobutan-2-yl)-8-methyl-6,7,8,9-tetrahydro-5H-imidazo[1,5-a][1,4]diazepine-1-carboxamide] | 10 to 100
CC(C)CN1CCn2c(-c3ccccc3)nc(C(=O)NN3CCCCC3)c2C1 [Compound 155, 7-isobutyl-3-phenyl-N-(piperidin-1-yl)-5,6,7,8-tetrahydroimidazo[1,5-a]pyrazine-1-carboxamide] | 0.1 to 10
CC(C)(C)c1noc([C@@H](NC(=O)c2nc(-c3ccccc3)n3c2CN(C2CC2)CC3)C(C)(C)C)n1 [Compound 284, (S)-N-(1-(3-tert-butyl-1,2,4-oxadiazol-5-yl)-2,2-dimethylpropyl)-7-cyclopropyl-3-phenyl-5,6,7,8-tetrahydroimidazo[1,5-a]pyrazine-1-carboxamide] | 0.1 to 10
CC(C)CN1CCn2c(-c3ccccc3)nc(C(=O)N[C@H](C)C3CCCCC3)c2C1 [Compound 163, (R)-N-(1-cyclohexylethyl)-7-isobutyl-3-phenyl-5,6,7,8-tetrahydroimidazo[1,5-a]pyrazine-1-carboxamide] | 0.1 to 10
COC(=O)N1CCn2c(-c3ccccc3)nc(C(=O)N[C@@H](C)c3ccccc3)c2C1 [Compound 179, (S)-methyl 3-phenyl-1-(1-phenylethylcarbamoyl)-5,6-dihydroimidazo[1,5-a]pyrazine-7(8H)-carboxylate] | 10 to 100
CC(C)CN1CCn2c(-c3ccc(Cl)cc3)nc(C(=O)N[C@H](CO)C(C)(C)C)c2C1 [Compound 160, (S)-3-(4-chlorophenyl)-N-(1-hydroxy-3,3-dimethylbutan-2-yl)-7-isobutyl-5,6,7,8-tetrahydroimidazo[1,5-a]pyrazine-1-carboxamide] | 0.1 to 10
CNC(=O)[C@@H](NC(=O)c1nc(-c2ccccc2)n2c1CN(S(=O)(=O)c1ccc(C(F)(F)F)cc1)CC2)C(C)(C)C [Compound 107, (S)-N-(3,3-dimethyl-1-(methylamino)-1-oxobutan-2-yl)-3-phenyl-7-(4-(trifluoromethyl)phenylsulfonyl)-5,6,7,8-tetrahydroimidazo[1,5-a]pyrazine-1-carboxamide] | 10 to 100
CCN1CCn2c(-c3ccccc3)nc(C(=O)N[C@H](C(=O)NC)C(C)(C)C)c2C1 [Compound 149, (S)-N-(3,3-dimethyl-1-(methylamino)-1-oxobutan-2-yl)-7-ethyl-3-phenyl-5,6,7,8-tetrahydroimidazo[1,5-a]pyrazine-1-carboxamide] | 10 to 100
CNC(=O)[C@@H](NC(=O)c1nc(-c2ccsc2)n2c1CN(S(=O)(=O)c1ccc(F)cc1)CC2)C(C)(C)C [Compound 109, (S)-N-(3,3-dimethyl-1-(methylamino)-1-oxobutan-2-yl)-7-(4-fluorophenylsulfonyl)-3-(thiophen-3-yl)-5,6,7,8-tetrahydroimidazo[1,5-a]pyrazine-1-carboxamide] | 10 to 100
CNC(=O)[C@@H](NC(=O)c1nc(-c2ccccc2)n2c1CN(S(=O)(=O)C1CC1)CC2)C(C)(C)C [Compound 100, (S)-7-(cyclopropylsulfonyl)-N-(3,3-dimethyl-1-(methylamino)-1-oxobutan-2-yl)-3-phenyl-5,6,7,8-tetrahydroimidazo[1,5-a]pyrazine-1-carboxamide] | 10 to 100
CNC(=O)[C@H](CC(C)C)NC(=O)c1nc(-c2ccc(Cl)c(F)c2)n2c1CN(C)CC2 [Compound 277, (S)-3-(4-chloro-3-fluorophenyl)-7-methyl-N-(4-methyl-1-(methylamino)-1-oxopentan-2-yl)-5,6,7,8-tetrahydroimidazo[1,5-a]pyrazine-1-carboxamide] | 10 to 100
Cc1noc([C@@H](NC(=O)c2nc(-c3ccccc3)n3c2CN(C(C)C)CC3)C(C)(C)C)n1 [Compound 89, (S)-N-(2,2-dimethyl-1-(3-methyl-1,2,4-oxadiazol-5-yl)propyl)-7-isopropyl-3-phenyl-5,6,7,8-tetrahydrimidazo[1,5-a]pyrazine-1-carboxamide] | 0.1 to 10
CNC(=O)[C@@H](NC(=O)c1nc(-c2ccccc2)n2c1CN(S(=O)(=O)CC(C)C)CC2)C(C)(C)C [Compound 95, (S)-N-(3,3-dimethyl-1-(methylamino)-1-oxobutan-2-yl)-7-(isobutylsulfonyl)-3-phenyl-5,6,7,8-tetrahydroimidazo[1,5-a]pyrazine-1-carboxamide] | 10 to 100
